# Measured values reported in patent US20190038597A1, “PREVENTION OF VASCULAR AND CARDIAC FIBROSIS VIA IRE1ALPHA INHIBITION” (McMaster University, priority 2017, published 2019).
# Legend:
# [1] = test system: VSMCs; assay: Picro-Sirius Red assay of collagen synthesis in VSMCs; format: cell-based, rat
# Procedure: VSMCs were cultured in DMEM/F12 containing 1% FBS. Confluent cells were treated with L-ascorbic acid-2-phosphate (100 μg/ml) and either TGF-β1 (5 ng/ml) or Ang II (1 μM). (A) Agarose gel for assessment of TGF-β1-induced XBP1 splicing in VSMCs after 24 h. (B) Picro-Sirius Red assay for measurement of collagen deposition induced by combined TGF-β1 and AA2P treatment after 72 h, and inhibition by 4μ8c and STF-083010. (C) Western blot for assessment of collagen chaperone expression after treatment of TGF-β1 and 4μ8c for 48 h. *, p<0.05. (D) Measurement of Ang II-induced collagen production and inhibition by 4μ8c and STF-083010 after 72 h.
# VSMCs were isolated from the aortas of 5-week old WKY rats using the explant method^29. The thoracic aorta was removed from the animal and placed in ice-cold 5× Antibiotics-Antimycotics solution (ThermoFisher). The adventitia was gently removed and the aorta was cut longitudinally. The endothelial layer was removed by gentle scraping with forceps. The aorta was cut into 3 mm^2 squares and placed on a 6 well plate in DMEM/F12 medium containing 10% fetal bovine serum (FBS). Explants were incubated undisturbed in a 5% CO2 incubator at 37° C. for 1 week and then passaged. Sprague-Dawley renal fibroblasts were purchased (Cell Biologics) and cultured in low glucose DMEM/F12 medium containing 10% FBS, streptomycin (100 μgimp, and penicillin (100 U/ml, Invitrogen, Burlington, ON). Cells between passages 5 and 10 were used for experiments. Cells were cultured in medium containing 1% FBS overnight before treatment.
# Collagen synthesis was measured using a Picro-Sirius Red-based assay as previously described^30. Briefly, cells cultured on a 96 well plate were fixed in methanol for 10 minutes at −20° C. Cells were washed once with PBS and incubated with Picrosirius Red stain (0.1% Direct Red 80 in saturated picric acid) for 1 h at room temperature. After the staining solution was removed, the cells were washed three times with 0.1% acetic acid and then imaged. The dye was then eluted with 0.1 N NaOH for 10 minutes on a rocking platform. Absorbance at 540 nm was measured using a Spectramax Plus Microplate Reader (Molecular Devices).
# Cells were co-treated with either 4μ8c or S′TF-083010 to inhibit IRE1α endonuclease activity. TGF-β1 induced XBP1 splicing after 24 h, which was blocked by co-treatment with 4μ8c (FIG. 2A). Collagen production was measured using a Picro-Sirius Red-based colorimetric assay. TGF-β1 combined with AA2P induced collagen synthesis in the VSMCs, which was inhibited by co-treatment with 4μ8c or STF-083010 (FIG. 2B).
# [2] = test system: SHR/L-NAME model of hypertension; assay: Radiotelemetry blood pressure and heart rate in L-NAME-treated SHRs; format: in vivo, rat
# Procedure: 12-14 week old male SHRs were implanted with radiotelemetry devices and randomized to receive vehicle, L-NAME (50 mg/L) or L-NAME and 4μ8c (2.5 mg/kg/day i.p.) for 18 days. Systolic (A), diastolic (B), and heart rate (C) were monitored. Data is presented as mean±SEM. *, p<0.05 vs. NT; #, p<0.05 vs. L-NAME. N≥4 per group.
# 12-14 week old male SHRs were used to determine the effect of pharmacological IRE1α inhibition on L-NAME-induced vascular stiffening. They were maintained on a 12-hour light-dark cycle with rat chow and water ad libitium. Animals were implanted with radio-telemetry devices (Data Science International, St. Paul, Minn., USA) one week before the start of the study. Animals were randomized into one of three groups (n=6 per group): 1) No treatment, 2) L-NAME (50 mg/L in drinking water, Sigma-Aldrich), or 3) L-NAME+4μ8c (2.5 mg/kg/day i.p., Millipore). 4μ8c was administered in a vehicle of 10% DMSO, 10% Tween-80 and 80% normal saline. Animals in Group 2 received daily injections of the vehicle. All animals were fed a normal chow diet. At 18 days, animals were sacrificed, organs were harvested and the aorta was collected for mechanical and structural analysis. All animal work was performed according to the guidelines approved by the McMaster University Animal Research Ethics Board.
# 12-14 week old SHRs were implanted with radiotelemetry devices and treated with the nitric oxide synthase inhibitor L-NAME for 18 days. Rats were given daily injections of either vehicle or 4μ8c (2.5 mg/kg/day i.p.). […] At Day 6, SBP had increased from 187.4±5.4 mmHg to 228.0±15.5 mmHg (p<0.05) and DBP from 134.8±6.5 mmHg to 174.5±13.6 mmHg. At Day 14, SBP and DBP reached a peak of 262.6±13.9 mmHg and 210.4±14.8 mmHg, respectively. […] In the L-NAME+4μ8c group, SBP increased from 166.6±8.4 mmHg at baseline to 216.7±4.8 mmHg at Day 6 while DBP increased from 124.7±5.5 mmHg at baseline to 166.2±8.2 mmHg at Day 6. SBP and DBP peaked at 232.3±5.4 mmHg and 192.1±17.0 mmHg, respectively, at Day 9. […] Vessels were stained with PicroSirius Red and imaged using a light microscope (FIG. 5A). Collagen content in homogenized aortic tissue was measured using the PSR-based colorometric assay.
# [3] = L-NAME+4μ8c group, peak at Day 9
# [4] = SHR, L-NAME 50 mg/L, 4μ8c 2.5 mg/kg/day i.p., 18 days
structure (smiles),measurement,setting,value
"Cc1cc(=O)oc2c(C=O)c(O)ccc12 [4μ8c, 7-Hydroxy-4-methyl-2-oxo-2H-chromene-8-carbaldehyde]",collagen synthesis induced by TGF-β1 combined with AA2P,"[1]; 72 h, co-treatment, FIG. 2B",inhibited
same,collagen synthesis induced by Ang II,"[1]; Ang II (1 μM) 72 h, FIG. 2D",blocked
same,DBP,"[2]; L-NAME+4μ8c group, Day 6",166.2±8.2 mmHg
same,SBP,"[2]; L-NAME+4μ8c group, Day 6",216.7±4.8 mmHg
same,DBP,"[2]; L-NAME+4μ8c group, baseline",124.7±5.5 mmHg
same,SBP,"[2]; L-NAME+4μ8c group, baseline",166.6±8.4 mmHg
same,DBP peak,[2]; [3],192.1±17.0 mmHg
same,SBP peak,[2]; [3],232.3±5.4 mmHg
same,effect on L-NAME-induced elevation in blood pressure,[2]; [4],did not have an effect
same,effect on L-NAME-induced elevation in heart rate,[2]; [4],did not have an effect
